Source: patent US20110262355A1, “COMPOSITIONS COMPRISING ENZYME-CLEAVABLE OPIOID PRODRUGS AND INHIBITORS THEREOF” (priority 2010, published 2011)
Read-outs that look alike come from different tables or passages of the source.

Columns and labels:
[1] = In vivo tolerability of Compound KC-3 in rats (IV); settings: rat, Compound KC-3 97 μmol/kg, tolerated
Protocol: Male naïve Sprague-Dawley rats, 4 per dose, were used in the study. Rats were weighed, and then placed under a heat lamp for 15-20 minutes to dilate the lateral tail veins. […] Before dosing, rats were placed in Broome restrainers and the drug was introduced into one of the tail veins using a syringe and needle. […] Blood samples were collected 5 minutes post-dose via the saphenous vein. The rats were observed up to 24 hours.

[2] = male, Sprague Dawley, rat, in vivo
[3] = In vitro stability of Compound KC-3 to household chemicals and enzyme preparations; type: physicochemical; settings: vodka, baking soda, WINDEX, vinegar (RT or 80° C.), GNC Super Digestive, tenderizer, subtilisn (RT); 1 or 24 hr
Protocol: Samples were incubated as described. Aliquots were removed at 1 hr and 24 hr and stabilized by adding each to a solution of 50% or 100% of 85% phosphoric acid solution to achieve a final pH of less than or equal to pH 4. The stabilized aliquots were then diluted 4- to 6-fold with water, vortex-mixed and applied to HPLC.

human μ-opioid receptor = human μ-opioid receptor (Homo sapiens, UniProt P35372); test: cell-based; set-up: expressed in transfected cells; host or cells: CHO; settings: agonist response, cAMP (HTRF); recombinant CHO cells; 37° C., 10 min; three separate experiments
Chain of human μ-opioid receptor (P35372 whole entry): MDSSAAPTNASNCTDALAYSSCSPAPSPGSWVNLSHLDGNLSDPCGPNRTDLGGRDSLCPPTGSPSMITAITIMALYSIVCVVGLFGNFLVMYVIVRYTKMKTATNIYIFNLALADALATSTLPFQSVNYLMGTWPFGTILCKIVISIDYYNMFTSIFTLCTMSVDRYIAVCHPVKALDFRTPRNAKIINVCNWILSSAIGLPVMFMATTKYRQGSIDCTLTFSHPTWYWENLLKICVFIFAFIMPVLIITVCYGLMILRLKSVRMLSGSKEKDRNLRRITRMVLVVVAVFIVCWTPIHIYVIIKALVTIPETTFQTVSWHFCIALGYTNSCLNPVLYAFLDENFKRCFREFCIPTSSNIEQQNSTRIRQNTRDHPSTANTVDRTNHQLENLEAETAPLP
Protocol: This Example measures the ability of certain compounds of the present disclosure to effect an agonist response when exposed to recombinant human μ-opioid receptor expressed in CHO cells.
A. and Uhl, G. R. (1994). […] The control reaction included 1 μM DAMGO. The reaction mixtures were incubated at 37° C. for 10 min, and the reaction product was cyclic AMP (cAMP). The samples were submitted to homogeneous time resolved fluorescence (HTRF®). EC50 values (concentration producing a half-maximal specific response) were determined by non-linear regression fit using the Hillplot software.

trypsin [4] = molecular target: T1, trypsin (Bos taurus, UniProt P00760); test: In vitro trypsin-mediated release of drug from ketone-modified opioid prodrugs KC-3 to KC-6, effect of Compound 109; settings: bovine, trypsin from bovine pancreas, h Average ± sd
T1 sequence (P00760 24-246): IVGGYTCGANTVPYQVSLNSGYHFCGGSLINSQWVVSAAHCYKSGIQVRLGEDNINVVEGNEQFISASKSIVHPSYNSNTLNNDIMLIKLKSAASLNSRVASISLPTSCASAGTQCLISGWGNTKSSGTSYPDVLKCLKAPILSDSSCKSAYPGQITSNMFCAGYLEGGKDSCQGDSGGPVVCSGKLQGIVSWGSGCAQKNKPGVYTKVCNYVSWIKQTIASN
Source text: (§1) Other reaction and sample treatment conditions were as described above.

[5] = molecular target: T2, trypsin from bovine pancreas (Bos taurus, UniProt P00760); test: as above; settings: 0.761 mM prodrug, 37° C., no trypsin inhibitor
T2 sequence (P00760 24-246): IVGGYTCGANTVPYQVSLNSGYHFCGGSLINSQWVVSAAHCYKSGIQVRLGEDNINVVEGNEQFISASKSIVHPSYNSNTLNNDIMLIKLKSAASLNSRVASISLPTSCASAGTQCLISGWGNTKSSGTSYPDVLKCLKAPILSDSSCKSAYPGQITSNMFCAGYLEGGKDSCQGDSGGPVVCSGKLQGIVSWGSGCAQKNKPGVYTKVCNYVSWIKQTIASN
Source text: as §1

[6] = rat
[7] = Pharmacokinetics of Compound KC-5 following PO administration to rats; settings: rat; PO Compound KC-5
[8] = Oral administration of Compound PC-4 and SBTI trypsin inhibitor to rats; settings: for Cmax (ng/mL HM) / Tmax: HM in rat plasma, PC-4 20 mg/kg
[9] = HM in rat plasma, PO, PC-4 20 mg/kg
[10] = molecular target: T2, trypsin from bovine pancreas; test: In vitro trypsin conversion of prodrugs to hydromorphone and inhibition by trypsin inhibitor; settings: with trypsin inhibitor 3,089 uM Compound 109
Protocol: The reactions were conducted at 37° C. for 24 hr. Samples were collected at specified time points, transferred into 0.5% formic acid in acetonitrile to stop trypsin activity and stored at less than −70° C. until analysis by LC-MS/MS.
The results are expressed as half-life of prodrug when exposed to trypsin (i.e., Prodrug trypsin half-life) in hours and rate of formation of HM per unit of trypsin.

[11] = Pharmacokinetics of Compound KC-6 following PO administration to rats; settings: rat; PO Compound KC-6
[12] = male, Sprague Dawley, rat, in vivo; remark: listed apart in the source
[13] = Oral administration of Compound PC-2 and SBTI trypsin inhibitor to rats; type: in vivo, rat; settings: rat plasma, PC-2 20 mg/kg with SBTI 500 mg/kg
[14] = Oral administration of Compound PC-1 and SBTI trypsin inhibitor to rats (hydromorphone in blood); settings: rat blood, PC-1 20 mg/kg with SBTI 10 to 1000 mg/kg
trypsin [15] = molecular target: T1, trypsin; test: In vitro IC50 of trypsin inhibitors, modified trypsin assay (Bergmeyer); type: biochemical; settings: trypsin inhibition
[16] = Oral administration of Compound PC-3 and SBTI trypsin inhibitor to rats; type: in vivo; settings: rat plasma, PC-3 20 mg/kg with SBTI 500 mg/kg
Source text: Dosing, sampling and analysis procedures were as described in Example 16.

[17] = pH 8, Pro-drug trypsin half-life, 0.761 mM prodrug, 241 BAEE U trypsin/mL, 37° C., no trypsin inhibitor
[18] = male, Sprague Dawley, in vivo, iv, 10 mg/kg

With COc1ccc2c3c1O[C@H]1C(OC(=O)N(C)CCNC(=O)[C@H](CCCNC(=N)N)NC(=O)CC(=O)O)=CC[C@@]4(O)[C@@H](C2)N(C)CC[C@]314 [Compound KC-3, N-{(S)-4-guanidino-1-[2-(methyl-[(5R,9R,13S,14S)-4,5a-epoxy-6,7-didehydro-14-hydroxy-3-methoxy-17-methylmorphinan-6-oxy]carbonyl-amino)-ethylcarbamoyl]-butyl}-malonamic acid] the “time to recover to normal activity” value [1] was at most 2 min, the “Compound conc. in CSF” value [2] was 34.1 ng/mL and the “Compound conc. in Plasma” value [2] was 59,225 ng/mL. For the same molecule, the Plasma/CSF partitioning coefficient [2] was 1,737, the conversion to oxycodone [3] was “less than 10%” and the EC50 (human μ-opioid receptor) was 1.6 µM. The half-life at 0.761 mM (trypsin [4]; [17]) was 8.92 ± 1.91 h, the half-life at 0.761 mM (trypsin [4]; pH 8, with Compound 109 (trypsin inhibitor), 2 µM, Pro-drug trypsin half-life, with trypsin inhibitor Compound 109 2 uM) was 43.3 ± 40.6 h and the “Rate of oxycodone formation, umol/h/BAEE U Average ± sd” value (“Rate … umol/h/BAEE U Average ± sd” for short) ([5]; 241 BAEE U trypsin/mL) was 0.0684 ± 0.0009 umol/h/BAEE U.

In the case of COc1ccc2c3c1O[C@H]1C(OC(=O)N(CCCCCC(=O)O)CCNC(=O)[C@H](CCCNC(=N)N)NC(C)=O)=CC[C@@]4(O)[C@@H](C2)N(C)CC[C@]314 [Compound KC-5, 6-{[2-(2-Acetylamino-5-guanidino-pentanoylamino)-ethyl]-[(5R,9R,13S,14S)-4,5a-epoxy-6,7-didehydro-14-hydroxy-3-methoxy-17-methylmorphinan-6-oxy]-1-enyloxycarbonyl-amino}-hexanoic acid], the plasma/CSF partitioning coefficient ([6]; male, Sprague Dawley, in vivo) is reported as 1,508, the “Compound conc. in CSF” value [6, 18] is reported as 36.4 ng/mL and the “Compound conc. in Plasma” value [6, 18] is reported as 54,900 ng/mL. For the same molecule, the Plasma/CSF partitioning coefficient [6, 18] was 1,508, the “relative plasma/CSF partitioning coefficient of prodrug to oxycodone (fold less CSF penetrant)” value ([6]; IV, 1,508/4.8) was “about 316 fold” and the “oxycodone plasma concentrations compared to administration of oxycodone” value [7] was “suppressed Cmax and AUC and delayed Tmax compared to administration of oxycodone”. For the same molecule, the EC50 (human μ-opioid receptor) was 2 µM, the half-life at 0.761 mM (trypsin [4]; [17]) was 1.2 ± 0.04 h and the “Rate … umol/h/BAEE U Average ± sd” value ([5]; 241 BAEE U trypsin/mL) was 0.135 ± 0.005 umol/h/BAEE U.

For CCN(CCNC(=O)[C@H](CCCNC(=N)N)NC(C)=O)C(=O)Oc1ccc2c3c1OC1C(=O)CCC4C(C2)N(C)CCC314 (stereo partly drawn) [Compound PC-4, [2-((S)-2-Acetylamino-5-guanidino-pentanoylamino)-ethyl]-ethyl-carbamic acid hydromorphone ester], the “Cmax (ng/mL HM)” value ([8]; SBTI 0 mg/kg, 7 rats) was 7.7 ± 2.3 ng/mL, the “Tmax” value ([8]; SBTI 0 mg/kg, 7 rats) was 2.3 h and the “Cmax (ng/mL HM)” value ([8]; SBTI 500 mg/kg, 4 rats) was 7.5 ± 2.1 ng/mL. The “Tmax” value ([8]; SBTI 500 mg/kg, 4 rats) was 6.5 h, the “Cmax (ng/mL HM)” value ([9]; Compound 101 0 mg/kg, 7 rats) was 7.7 ± 2.3 ng/mL and the “Tmax” value ([9]; Compound 101 0 mg/kg, 7 rats) was 2.3 h. For the same molecule, the “Cmax (ng/mL HM)” value ([9]; Compound 101 10 mg/kg, 4 rats) was 4.8 ± 1.4 ng/mL, the “Tmax” value ([9]; Compound 101 10 mg/kg, 4 rats) was 6.0 h and the “Rate of HM formation, umols/h/umol trypsin Average ± sd” value [10] was 3.27 ± 1.87 umols/h/umol trypsin.

With COc1ccc2c3c1O[C@H]1C(OC(=O)N(C)C[C@H](NC(=O)[C@H](CCCNC(=N)N)NC(C)=O)C(=O)N(C)CC(=O)O)=CC[C@@]4(O)[C@@H](C2)N(C)CC[C@]314 [Compound KC-6, ({(S)-2-((S)-2-Acetylamino-5-guanidino-pentanoylamino)-3-[(oxycodone-enyloxycarbonyl)-methyl-amino]-propionyl]-methyl-amino)-acetic acid] the “oxycodone plasma concentrations compared to administration of oxycodone” value [11] was “suppressed Cmax and AUC and delayed Tmax compared to administration of oxycodone”, the “Compound conc. in CSF” value [12] was 74.1 ng/mL and the “Compound conc. in Plasma” value [12] was 60,400 ng/mL. The Plasma/CSF partitioning coefficient [12] was 815, the plasma/CSF partitioning coefficient [12] was 815 and the EC50 (human μ-opioid receptor) was 1.8 µM. The “Rate … umol/h/BAEE U Average ± sd” value ([5]; 241 BAEE U trypsin/mL) was 0.0118 ± 0.0042 umol/h/BAEE U and the “Rate … umol/h/BAEE U Average ± sd” value ([5]; 4815 BAEE U trypsin/mL) was 0.00571 ± 0.0002 umol/h/BAEE U.

B1: SBTI: trypsin inhibitor from Glycine max (soybean) (Catalog No. 93620, ˜10,000 units per mg, Sigma-Aldrich) (protein, UniProt P01070 25-205, looked up)
Trypsin inhibitor A: DFVLDNEGNPLENGGTYYILSDITAFGGIRAAPTGNERCPLTVVQSRNELDKGIGTIISSPYRIRFIAEGHPLSLKFDSFAVIMLCVGIPTEWSVVEDLPEGPAVKIGENKDAMDGWFRLERVSDDEFNNYKLVFCPQQAEDDKCGDIGISIDHDDGTRRLVVSKNKPLVVQFQKLDKESL
For B1, the “effect of inhibitor on prodrug's release of hydromorphone” value (shortened to “effect of inhibitor”) [13] was “attenuates Compound PC-2's ability to release hydromorphone, both with respect to suppressing Cmax and delaying Tmax”, the “effect of inhibitor” value ([8]; rat plasma, PC-4 20 mg/kg with SBTI 500 mg/kg) was “attenuates Compound PC-4's ability to release hydromorphone, at least with respect to delaying Tmax” and the “effect of inhibitor” value [14] was “attenuates Compound PC-1's ability to release hydromorphone in a dose-dependent manner”. The IC50 (trypsin [15]; Table 7 (Example 19)) was 0.27 µM, the IC50 (trypsin [15]; Table 20 (Example 40)) was 0.27 µM and the “effect of inhibitor” value [16] was “attenuates Compound PC-3's ability to release hydromorphone, both with respect to suppressing Cmax and delaying Tmax”.
